PubChem BioAssay (NCI)
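Tested at 5 concentrations; 48 h exposure; 96-well plates; endpoints linearly interpolated, else capped at highest concentration. At the TGI there is no net growth.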 Where a SMILES comes first, the peptide text is derived from it. Bridges are numbered along the chain shown (N, C = ends).

Key:
Test in all cases: NCI-60 cell line screen, 48 h
U251 CNS = system: U251 CNS
LOX IMVI melanoma = system: LOX IMVI melanoma
OVCAR-3 ovarian = system: OVCAR-3 ovarian
HT29 colon = system: HT29 colon
UO-31 renal = system: UO-31 renal
UACC-62 melanoma = system: UACC-62 melanoma
DU-145 prostate = system: DU-145 prostate
HCT-116 colon = system: HCT-116 colon

In the case of `COC(=O)c1ccc(C)cc1C1CN=NC12Cc1cccc(C)c1C2=O` (stereo not drawn), the TGI (U251 CNS) is reported as > 100 µM, the TGI (LOX IMVI melanoma) is reported as 63.9 µM and the TGI (OVCAR-3 ovarian) is reported as > 100 µM. For the same molecule, the TGI (HT29 colon) was > 100 µM, the TGI (UO-31 renal) was 78.3 µM and the TGI (UACC-62 melanoma) was 53.1 µM. For the same molecule, the TGI (DU-145 prostate) was > 100 µM and the TGI (HCT-116 colon) was > 100 µM.
In the case of `COC(=O)C1CCC(=O)NCCCCC(NC(=O)C(N)CC(=O)O)C(=O)N1` (stereo not drawn) (H-Asp-Lys-Glu-OMe; lactam 2-3; configuration not given here), the TGI (U251 CNS) is reported as > 100 µM, the TGI (LOX IMVI melanoma) is reported as > 100 µM and the TGI (OVCAR-3 ovarian) is reported as > 100 µM. The TGI (HT29 colon) was > 100 µM, the TGI (UO-31 renal) was > 100 µM and the TGI (UACC-62 melanoma) was > 100 µM. The TGI (DU-145 prostate) was > 100 µM and the TGI (HCT-116 colon) was > 100 µM.
For `O=[N+]([O-])/C(Cl)=C(\NCCO)C(Cl)=C(Cl)Cl`, the TGI (U251 CNS) was > 100 µM, the TGI (LOX IMVI melanoma) was > 100 µM and the TGI (OVCAR-3 ovarian) was > 100 µM. The TGI (HT29 colon) was > 100 µM, the TGI (UO-31 renal) was > 86.4 µM and the TGI (UACC-62 melanoma) was > 100 µM. The TGI (DU-145 prostate) was > 100 µM and the TGI (HCT-116 colon) was 81.5 µM.
In the case of `Cc1cc(C)c(S(=O)(=O)N(CCCCCN)OCCCN)c(C)c1`, the TGI (U251 CNS) is reported as 35.4 µM, the TGI (LOX IMVI melanoma) is reported as 36.8 µM and the TGI (OVCAR-3 ovarian) is reported as 36.2 µM. The TGI (HT29 colon) was 27.9 µM, the TGI (UO-31 renal) was 27.1 µM and the TGI (UACC-62 melanoma) was 33.4 µM. The TGI (DU-145 prostate) was 31.2 µM and the TGI (HCT-116 colon) was 32.7 µM.
In the case of `O=C1CC(c2cccc([N+](=O)[O-])c2)C2(C(=O)NC(=S)NC2=O)C(c2cccc([N+](=O)[O-])c2)C1` (stereo not drawn), the TGI (U251 CNS) is reported as 81.3 µM, the TGI (LOX IMVI melanoma) is reported as 34 µM and the TGI (OVCAR-3 ovarian) is reported as > 100 µM. For the same molecule, the TGI (HT29 colon) was > 100 µM, the TGI (UO-31 renal) was > 100 µM and the TGI (UACC-62 melanoma) was 60.6 µM. The TGI (DU-145 prostate) was > 100 µM and the TGI (HCT-116 colon) was 43.7 µM.
For `CCOP(=O)(OCC)C(c1ccccc1)N(C(=O)NC(F)(F)F)c1ccc(C)cc1` (stereo not drawn), the TGI (U251 CNS) was > 100 µM, the TGI (LOX IMVI melanoma) was > 100 µM and the TGI (OVCAR-3 ovarian) was > 100 µM. The TGI (HT29 colon) was > 100 µM, the TGI (UO-31 renal) was > 100 µM and the TGI (UACC-62 melanoma) was > 100 µM. The TGI (DU-145 prostate) was > 100 µM and the TGI (HCT-116 colon) was > 100 µM.
For `CC1(C)CC(=O)C2=C(C1)NC(=S)C(C#N)C2c1ccccc1` (stereo not drawn), the TGI (U251 CNS) was > 100 µM, the TGI (LOX IMVI melanoma) was > 100 µM and the TGI (OVCAR-3 ovarian) was > 100 µM. For the same molecule, the TGI (HT29 colon) was > 100 µM, the TGI (UO-31 renal) was > 100 µM and the TGI (UACC-62 melanoma) was > 100 µM. For the same molecule, the TGI (DU-145 prostate) was > 100 µM and the TGI (HCT-116 colon) was > 100 µM.
For `CC(=O)N1CCOC12N=NC(C)(C)O2` (stereo not drawn), the TGI (U251 CNS) was > 100 µM, the TGI (LOX IMVI melanoma) was > 100 µM and the TGI (OVCAR-3 ovarian) was > 100 µM. The TGI (HT29 colon) was > 100 µM, the TGI (UO-31 renal) was > 100 µM and the TGI (UACC-62 melanoma) was > 100 µM. For the same molecule, the TGI (DU-145 prostate) was > 100 µM and the TGI (HCT-116 colon) was > 100 µM.
`COc1ccc(NCn2nc(CCCCCCCCc3nn(CNc4ccc(OC)cc4)c(=S)o3)oc2=S)cc1` was tested, and the TGI (U251 CNS) was > 100 µM, the TGI (HT29 colon) was > 100 µM and the TGI (UO-31 renal) was > 100 µM. For the same molecule, the TGI (UACC-62 melanoma) was > 100 µM, the TGI (DU-145 prostate) was > 100 µM and the TGI (HCT-116 colon) was > 100 µM.
For `CC(C)=CCNc1ncnc2c1ncn2CCC(=O)O`, the TGI (U251 CNS) was > 100 µM, the TGI (LOX IMVI melanoma) was > 100 µM and the TGI (OVCAR-3 ovarian) was > 100 µM. The TGI (HT29 colon) was > 100 µM, the TGI (UO-31 renal) was > 100 µM and the TGI (UACC-62 melanoma) was > 100 µM. For the same molecule, the TGI (DU-145 prostate) was > 100 µM and the TGI (HCT-116 colon) was > 100 µM.
In the case of `C/C(=N\Nc1nc2cc(F)ccc2s1)c1ccccn1`, the TGI (U251 CNS) is reported as > 33.3 µM, the TGI (OVCAR-3 ovarian) is reported as 5.45 µM and the TGI (HT29 colon) is reported as 3.33 µM. The TGI (UO-31 renal) was 0.314 µM, the TGI (UACC-62 melanoma) was 1.46 µM and the TGI (DU-145 prostate) was > 100 µM. The TGI (HCT-116 colon) was 13.2 µM.
In the case of `COc1cc(/C=C2\N=C(c3ccccc3)N(c3cc4cc(Sc5ccccc5)ccc4[nH]3)C2=O)ccc1O`, the TGI (LOX IMVI melanoma) is reported as > 50 µM, the TGI (HT29 colon) is reported as > 50 µM and the TGI (UO-31 renal) is reported as > 50 µM. For the same molecule, the TGI (UACC-62 melanoma) was > 50 µM, the TGI (DU-145 prostate) was > 50 µM and the TGI (HCT-116 colon) was > 50 µM.
For `O=C(CCC(NC(=O)OCc1ccccc1)C(=O)OCc1ccccc1)Nc1cccc(OCc2ccccc2)c1` (stereo not drawn), the TGI (U251 CNS) was > 100 µM, the TGI (LOX IMVI melanoma) was 38.3 µM and the TGI (OVCAR-3 ovarian) was 45.4 µM. For the same molecule, the TGI (HT29 colon) was 70.9 µM, the TGI (UACC-62 melanoma) was > 100 µM and the TGI (DU-145 prostate) was 79.6 µM. The TGI (HCT-116 colon) was 36.4 µM.
